Data as given in US7485659B2, “Anticancer compositions, and methods of making and using the same” (Faustus Forschungs CIE, Translational Cancer Research GmbH, priority 2001, dated 2009).

Experiments:
Water-solubility = assay type: physicochemical
[1] = system: stem cells of human solid tumors and continuous human tumor cell lines; assay: In vitro antiproliferative experiments on stem cells of human solid tumors (nude mice xenografts) and continuous human tumor cell lines; assay type: cell-based; settings: stem cells of human solid tumors bred as nude mice xenografts
[2] = system: human line of tumor cells SW480 (colon carcinoma); assay: MTT assay, continuous 96 hour exposure, SW480; assay type: cell-based
Procedure: (§1) The cytotoxic effects of KP 1019 and combinations of KP 1339 and indazol in different molar ratios (administered as solution in the conventional cell culture medium MEM, supplemented with 10% fetal bovine serum, without the addition of organic solvents or dissolving agents) have been comparatively investigated on the human line of tumor cells SW480 (colon carcinoma) and CH1 (ovarian carcinoma) in the MTT assay under the application of a continuous 96 hour exposure to the active substance.

[3] = system: human line of tumor cells CH1 (ovarian carcinoma); assay: MTT assay, continuous 96 hour exposure, CH1; assay type: cell-based
Procedure: as §1

Compound | water-solubility (in words) (Water-solubility) | water-solubility relative to KP 1019 (Water-solubility; compared with KP 1019) | antiproliferative effectiveness in vitro compared with KP 1019 [1] | tumor inhibiting (cytotoxic) activity compared with KP 1019 ([2]; MEM + 10% fetal bovine serum) | tumor inhibiting (cytotoxic) activity compared with KP 1019 ([3]; MEM + 10% fetal bovine serum) | concentration at which a cytotoxic effect is exhibited [2] [µM] | concentration at which a cytotoxic effect is exhibited [3] [µM]
[Cl][Ru-]([Cl])([Cl])[Cl].[Na+].c1ccc2[nH]ncc2c1.c1ccc2[nH]ncc2c1 [KP 1339, sodium trans-[RuCl4(ind)2]] | easily water-soluble | more than thirty times higher than KP 1019 | clearly weaker antiproliferative effectiveness than KP 1019 | three to four times less effective than KP 1019 | three to four times less effective than KP 1019 |  | 
c1ccc2[nH]ncc2c1 [Indazol, indazol, reference compound] |  |  |  |  |  | > 1000 | > 1000
